Measurements taken from patent US20250289844A1, “TREATMENT OF GM1 DEFICIENCIES” (Seneb BioSciences, Inc., priority 2022, published 2025).

Tests used:
[1] = test system: GM2 synthase deficient mice; test: Minimum effective dose and motor/cognitive function, ganglioside replacement therapy in GM2 synthase deficient mice; type: in vivo
Description: FIG. 14. Motor and Cognitive function of GM2 synthase deficient mice (heterozygotes; HT and homozygotes; KO; 200-300 day old) treated with either saline (Sal) or GM1 (d18:1, C18:0) (30 mg/Kg, intraperitoneal, once daily) and compared to age matched controlled wild type mice (WT). FIG. 14A. Mouse grip strength, and FIG. 14B. Mouse cognitive function (T-maze), were assessed after 3 weeks of dosing.
FIG. 27. Minimum effective dose. Motor function of GM2 synthase deficient mice (heterozygotes; HT, 200-300 day old) treated with GM1(d18:1, C18:0) (intraperitoneal, once daily). FIG. 27A. Mouse grip strength, FIG. 27B. Adhesive removal, and FIG. 27C. Pole climbing.
(§1) The minimum effective dose of GM1 of the invention was 5 mg/kg (IP, once daily) when administered as ganglioside replacement therapy in ganglioside deficient mice FIG. 27. […] The predicted therapeutic human dose based on allometric scaling of all animal and human data is predicted to be 2-10 mg/Kg administered daily as a parenteral (e.g., subcutaneous, intraperitoneal, intramuscular). In an exemplary embodiment, the therapeutically effective amount is from about 2 to about 10 mg per kg of body weight per dosage. In an exemplary embodiment, the dose of the GM1 formulation is administered parenterally once daily.

[2] = Stability of GM1 formulations at room temperature; type: physicochemical; details: water or phosphate buffer 0-15 mM pH 7.0-7.4, arginine 60-100 mM, sodium chloride 0-137 mM
Description: (§2) Example 4. Formulation of GM1. Water or buffer solutions were added to GM1 and the suspension stirred until the GM1 was completely dissolved. […] Concentrations of solutions of GM1 prepared by this method included 50 mg/mL, 100 mg/mL, 200 mg/mL, 300 mg/mL, 400 mg/mL and 500 mg/mL. Formulations containing phosphate buffer 0-15 mM (pH 7.0-7.4) were also used and various excipients added including arginine (60-100 mM) and sodium chloride (0-137 mM) (FIG. 26).

[3] = test system: GM3 synthase deficient mice; test: Motor and cognitive function, ganglioside replacement therapy in GM3 synthase deficient mice; type: in vivo; details: 5 mg/kg IP once daily; GM3 synthase deficient mice (knock-outs and heterozygotes)
Description: FIG. 15. Motor and Cognitive function of GM3 synthase deficient mice (heterozygotes; HT and homozygotes; KO; 7-10 months old) treated with either saline (Sal) or GM1 (d18:1, C18:0) (30 mg/Kg, intraperitoneal, once daily for 3 weeks) and compared to age matched controlled wild type mice (WT). FIG. 15A. Grip Duration, FIG. 15B. Beam Transversal, and FIG. 15C. Short-term memory impairment (T-maze).
as §1

[4] = vendor or literature description; cited from earlier work
[5] = Pharmacokinetics of formulated GM1 after subcutaneous administration; type: in vivo; details: Sprague Dawley rats, 30 mg/Kg, all GM1 concentrations tested
Description: (§3) FIG. 26. Solubility of GM1 of the Invention and Pharmacokinetics of different formulations of GM1 in Sprague Dawley after subcutaneous administration at a dose of 30 mg/Kg. GM1 was formulated at different GM1 concentrations from 50 mg/mL to 500 mg/mL in water or buffer with or without excipients and cosolvents.
Example 5. Pharmacokinetics of Formulated GM1. The formulated GM1 was administered, subcutaneously, to Sprague Dawley rats and the pharmacokinetics determined (FIG. 26). The plasma GM1 levels returned to normal after 72 hours for all GM1 concentrations tested.

[6] = test system: Huntington's disease YAC128 mice; test: Motor function (rotarod, narrow beam) in Huntington's disease YAC128 mice; type: in vivo; details: Alzet pump, intracerebral ventricular injection
Description: FIG. 25. Improvement of motor function in Huntington's disease YAC128 mice after ganglioside replacement therapy using ganglioside compositions of the invention. Mice were administered GM1 using an Alzet pump and intracerebral ventricular injection. FIG. 25A. […] FIG. 25B. […] WT mice treated with GM1 (□), solid line; WT mice treated with cerebral spinal fluid (▪) hashed line; YAC128 Huntington's disease mice treated with cerebral spinal fluid (⋄) hashed line; YAC128 Huntington's disease mice treated with GM1 (♦) solid line.
In still other embodiments, gangliosides and other compounds of the invention can be used as a therapeutic to treat Huntington's disease caused by a deficiency of one or more ganglioside species, e.g., GM3, GM2 and/or GM1, FIGS. 20 and 24 (Di Pardo (2016) Front. Neurosci. 10:457). In some embodiments, the ganglioside deficiency is caused by reduced or missing enzyme activity and/or expression selected from GM3 synthase (ST3Gal5), GM2 synthase (B4GalNT1) and GM1 synthase (B3GalT4), FIG. 24 (Desplats (2007) Neurobiol. Dis. 27(3): 265-277). In another preferred embodiment, the ganglioside deficiency encompasses reduced amounts or missing ganglioside selected from GM3, GM2 and/or GM1. […]

[7] = Formulation / solubility of GM1 in water or buffer; type: physicochemical; details: 50 to 500 mg/mL
Description: as §3, §2

CCCCCCCCCCCCC/C=C/C(O)C(CO[C@@H]1O[C@H](CO)[C@@H](O[C@@H]2O[C@H](CO)[C@H](O[C@@H]3O[C@H](CO)[C@H](O)[C@H](O[C@@H]4O[C@H](CO)[C@H](O)[C@H](O)[C@H]4O)[C@H]3NC(C)=O)[C@H](O[C@]3(C(=O)O)C[C@H](O)[C@@H](NC(C)=O)[C@@H](C(O)C(O)CO)O3)[C@H]2O)[C@H](O)[C@H]1O)NC(=O)CCCCCCCCCCCCCCCCC (stereo partly drawn) [GM1, GM1 (d18:1/C18:0)]
motor and cognitive deficits ([1]; 5 mg/kg IP once daily, GM2 synthase deficient mice (knock-outs and heterozygotes)): reversing motor and cognitive deficits | minimum effective dose ([1]; IP, once daily, ganglioside replacement therapy in ganglioside deficient mice (FIG. 27: grip strength, adhesive removal, pole climbing)): 5 mg/kg | stability of formulations [2]: stable at room temperature for months | motor and cognitive deficits [3]: reversing motor and cognitive deficits | solubility in water [4]: effectively no solubility in water | time after which plasma GM1 levels returned to normal [5]: 72 h | rotarod motor function ([6]; FIG. 25A): Improved rotarod motor function | narrow beam motor function ([6]; FIG. 25B): Improved narrow beam motor function | appearance of solution [7]: clear, colorless and non-opaque solution
